Experimental data as given in patent publication US10934527B2, “Generation of lineage-restricted progenitor cells from differentiated cells” (The Regents of the University of California, priority 2011, dated 2021).
“Also recorded” adds a separate entry of the source.

Columns and labels:
YFP+ myotubes = test: De-differentiation assay of lineage-marked YFP+ primary myotubes; format: cell-based, mice
Procedure: WT myoblasts or Tet-Oct4 (3×10^5) myoblasts upon 4-6 hour infection with 300 MOI of Ad-Cre virus were washed with growth medium twice to get rid of any residual virus and incubated for another 24 hours in growth medium at 37° C. in 5% CO2 incubator. These myoblasts were then lifted off from the plates by addition of 1×PBS, counted (3×10^4 cells/well) and co-cultured with 7×10^4 Lox-YFP myoblasts (obtained from B6.129X1-Gt(ROSA)26Sor^tm1(EYFP)Cos/J mice strain) per well in differentiation inducing medium DMEM (Cellgro)+2% horse serum+1% Penicillin/Streptomycin on 12 well (BD Falcon) on ECM (1:500) coated 12 well plates. […] The inhibitors were then withdrawn and cells were switched to growth medium containing bFGF (9 ng/ml). The treated cells were fed fresh growth medium and bFGF everyday over a period of time and the morphology of YFP expressing myotubes was routinely visualized by epifluorescence microscope using YFP filter and photographed using 10× and 20× objectives. For live Hoechst staining, 4 μM of Hoechst was added everyday to YFP labeled myotube cultures, incubated for 10 minutes at 37° C. in 5% CO2 incubator, washed off to remove unlabeled Hoechst and photographed.
The labeled YFP^+ myotubes per well in 4 day old Cre-Lox myotube cultures were determined to be ˜2600. After inhibitor treatment, ˜350 YFP^+ mononucleated cells were found in culture. […] Another method was based on the determination of Lox YFP myonuclei in labeled myotubes. […] Therefore, reprogramming efficiency calculated was the percent of YFP^+ mononucleated cells out of an estimated total number of Lox YFP myonuclei in YFP^+ myotubes and was determined ˜5.04% [(350/6940)×100] (see FIG. 11D).

primary myotubes = test: Apoptosis / cell death in treated primary myotubes; format: cell-based, mice
[1] = 96 hour old YFP+ myotubes treated daily for 2 days in DM (10 μM), then switched to GM

O.O.O.OO.OO.[K+].[OH-].[V].c1cnc2c(c1)ccc1cccnc12 [BpV, potassium bisperoxo(1,10-phenanthroline)oxovanadate]
de-differentiation frequency / reprogramming efficiency, method 1: percent of YFP+ mononucleated cells out of the total number of labeled YFP+ myotubes (YFP+ myotubes; [1]): ~1.18%
reprogramming efficiency, method 2: percent of YFP+ mononucleated cells out of estimated total number of Lox YFP myonuclei in YFP+ myotubes (YFP+ myotubes; [1]): ~0.4%
cell death / apoptosis of myotubes (primary myotubes; myotubes treated with BpV alone): cell death occurred; also recorded: did show apoptosis

COc1cccc2c1C(=O)c1c(O)c3c(c(O)c1C2=O)C[C@@](O)(C(=O)CO)C[C@@H]3O[C@H]1C[C@H](N)[C@H](O)[C@H](C)O1 [doxorubicin]
appearance of YFP+ mononucleated cells from Cre-Lox myotubes (YFP+ myotubes; 0.2 uM for 48 hours, alone or in combination with the apoptosis inhibitor, then growth media 72-96 hours): no YFP^+ mononucleated cells were observed

N-(2-Quinolyl)valyl-aspartyl-(2,6-difluorophenoxy)methyl ketone [Q-VD]
appearance of YFP+ mononucleated cells from YFP+ myotubes (YFP+ myotubes; treated in DM, then switched to GM): no YFP^+ mononucleated cells were observed
apoptosis by doxorubicin in Cre-Lox myotube cultures (primary myotubes; with 0.2 uM doxorubicin for 48 hours): reduced apoptosis
